Measured values published in ChEMBL document CHEMBL1151522, “Syntheses of homoserine phosphate analogs as potential inhibitors of bacterial threonine synthase” (Bioorg Med Chem Lett, 1994).
pKi: −log10 of the molar value.

Assays:
[1] = Inhibition of threonine synthase in Escherichia coli; c: indicates No inhibition at 10 mM
Escherichia coli [2] = experiment: Inhibition of Escherichia coli threonine synthase expressed as inactivation constant; d: indicates competitive inhibitor
[3] = Inhibition of threonine synthase in Escherichia coli
Escherichia coli [4] = experiment: Inhibition of Escherichia coli threonine synthase expressed as inactivation constant

Row | Compound | Ki [1] | K inact (Escherichia coli [2]) | pKi [3] | K inact (Escherichia coli [4]) [min⁻¹]
1 | NC(CC#CP(=O)(O)O)C(=O)O (stereo not drawn) | No inhibition | – | – | –
2 | NC(CSCP(=O)(O)O)C(=O)O (stereo not drawn) | – | d | 4.48 | –
3 | NC(C/C=C\P(=O)(O)O)C(=O)O (stereo not drawn) | No inhibition | – | – | –
4 | NC(/C=C\CP(=O)(O)O)C(=O)O (stereo not drawn) | – | – | 1.00 | 1.5
5 | NC(/C=C/CP(=O)(O)O)C(=O)O (stereo not drawn) | – | – | 3.40 | 0.25
6 | NC(COCP(=O)(O)O)C(=O)O (stereo not drawn) | No inhibition | – | – | –
7 | NC(CNCP(=O)(O)O)C(=O)O (stereo not drawn) | – | – | 4.23 | 1.44
8 | NC(C/C=C/P(=O)(O)O)C(=O)O (stereo not drawn) | – | Competitive inhibitor | 3.27 | –
